PubChem BioAssay (NCI)
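Test compounds were applied to cells in 96-well plates for 48 hours at 5 doses. TGI denotes the concentration required for complete inhibition of growth.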

Experiments:
Experiment in all cases: NCI anticancer screen, dose series, 48 h
A498 renal = tested on: A498 renal
UACC-257 melanoma = tested on: UACC-257 melanoma
TK-10 renal = tested on: TK-10 renal
SN12C renal = tested on: SN12C renal
MDA-MB-231 breast = tested on: MDA-MB-231 breast
EKVX NSCLC = tested on: EKVX NSCLC
BT-549 breast = tested on: BT-549 breast
HCT-116 colon = tested on: HCT-116 colon
NCI/ADR-RES ovarian = tested on: NCI/ADR-RES ovarian
KM12 colon = tested on: KM12 colon
LOX IMVI melanoma = tested on: LOX IMVI melanoma
OVCAR-5 ovarian = tested on: OVCAR-5 ovarian
SNB-75 CNS = tested on: SNB-75 CNS
NCI-H522 lung = tested on: NCI-H522 lung
HCC-2998 colon = tested on: HCC-2998 colon
MALME-3M melanoma = tested on: MALME-3M melanoma
SF-295 CNS = tested on: SF-295 CNS
SK-MEL-5 melanoma = tested on: SK-MEL-5 melanoma
IGROV1 ovarian = tested on: IGROV1 ovarian
SNB-19 CNS = tested on: SNB-19 CNS

SMILES	TGI (A498 renal) [µM]	TGI (UACC-257 melanoma) [µM]	TGI (TK-10 renal) [µM]	TGI (SN12C renal) [µM]	TGI (MDA-MB-231 breast) [µM]	TGI (EKVX NSCLC) [µM]	TGI (BT-549 breast) [µM]	TGI (HCT-116 colon) [µM]	TGI (NCI/ADR-RES ovarian) [µM]	TGI (KM12 colon) [µM]	TGI (LOX IMVI melanoma) [µM]	TGI (OVCAR-5 ovarian) [µM]	TGI (SNB-75 CNS) [µM]	TGI (NCI-H522 lung) [µM]	TGI (HCC-2998 colon) [µM]	TGI (MALME-3M melanoma) [µM]	TGI (SF-295 CNS) [µM]	TGI (SK-MEL-5 melanoma) [µM]	TGI (IGROV1 ovarian) [µM]	TGI (SNB-19 CNS) [µM]
Nc1ncc(Br)c(NCC2(CO)CCC2)n1	> 100	> 100	> 100	> 100	> 100	> 100	> 100	> 100	> 100	> 100	> 100	> 100	> 100	> 100	> 100	> 100	> 100	> 100	> 100	
Cn1c2ccc([N+](=O)[O-])cc2c(=O)n1Cc1ccccc1F	> 100	> 100	> 100	> 100	> 100	> 100	> 100	> 100	76.3	> 100	> 100	> 100	70.2	71.5	> 100	> 100	> 100	> 100	> 100	> 100
O=[N+]([O-])C(=C(Cl)Cl)C(Cl)=C(Cl)Cl	14.9	0.74	1.35	2.22	2.11	11.2	0.528	0.849	5.45	5.51	0.0351	3.94	3.35	< 0.0106	5.43	0.126	9.54	1.83	1.15	11.2
C=CC[C@H]1O[Si](C(C)(C)C)(C(C)(C)C)[C@H](C)[C@H]1C	> 100	> 100	> 100	> 100	> 100	> 100	> 100	> 100	> 100	> 100	> 100	> 100	> 100	> 100	> 100	> 100	> 100	> 100	> 100	> 100
CC1OC(OC2C(O[C@H]3CC[C@@H]4C(=CC[C@@H]5[C@@]4(C)C(=O)C[C@]4(C)[C@@H]([C@H](C)CC[C@@H](O)C(C)(C)O)CC[C@@]54C)C3(C)C)OC(CO)C(O)C2O)C(O)C(O)C1O (some centres undefined)	> 100	> 100	> 100	> 100	> 100	> 100	> 100	> 100	> 100	> 100	> 100	> 100	> 100	> 100	> 100	> 100	> 100	> 100	> 100	> 100
COc1ccc(N2CN3OC(=O)N(c4ccc(OC)cc4)[C@@]3(c3ccccc3)C2)cc1	> 100	> 100	> 100	> 100	99.6	> 100	> 100	> 100	32	> 100	> 100	> 100	95.2	> 100	> 100	> 100	92.9	76.9	> 100	> 100
C=Cc1nc2c(Cl)ncnc2n1Cc1ccccc1	22.4	8.6	7.72	17.5	19.1	10.3	10.9	4.72	23.1	11.5	8.44	30.5	28.4	3.83	6.76	15.1	32.2	8.69	10.9	31.5
Cc1sc(Nc2ccc(Nc3nc(-c4ccccc4)c(C)s3)cc2)nc1-c1ccccc1	> 100	> 100	> 100	> 100	> 100	> 100	> 100	> 100	> 100	> 100	> 100	> 100	> 100	> 100	50.5	> 100	> 100	66.3	> 100	> 100
NC1c2c(Br)sc(N3CCCC3)c2C(=O)C1O (centres undefined)	> 50	> 50	> 50	> 50	> 50	> 50	> 50	> 50	> 50	> 50	> 50	> 50	> 50	> 50	> 50	> 50	> 50	> 50	> 50	> 50
CN1CCc2cc3c(c4c2C1C(O)c1ccccc1-4)OCO3 (centres undefined)	8.45	26.3	> 100	11.1	22.5	35.4	19.4	> 100	53.9	24	25.1	44.4	28.5	13.7	22.2	23.2	21.1	26.4	26	> 100
